pIC50: −log10 of the molar value.
What follows are compounds tested on MV-4-11 cells (assay: Cell Viability Assay in MV-4-11 Cells). Settings: Homo sapiens, MV4-11, 72 h.
Format: cell-based
In short: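 Luminescent ATP read-out (CellTiter-Glo) after 72 h compound treatment of MV-4-11 leukaemia cells (7,000 per well, IMDM plus 10% FBS). Values expressed relative to DMSO control and derived by four-parameter non-linear regression.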
`Cc1cccc2ccnc(N(C(=O)N3CCC[C@H](CCC(=O)Nc4ccccc4)C3)[C@@H]3CCCNC3)c12` [Example 344, N-(8-methylisoquinolin-1-yl)-3-(3-oxo-3-(phenylamino)propyl)-N—((R)-piperidin-3-yl) piperidine-1-carboxamide] gave a pIC50 of 6.03.

Same assay, conditions: Homo sapiens, MV4-11, 72 h, MV-4-11 cells, 72 h, Cell-Titer Glo; read-out: IC50
`COCCn1cc(-c2ccc(C(=O)N(c3nccc4cc(F)cc(C)c34)[C@@H]3CCCNC3)cn2)nn1` [Example 920, N-(6-fluoro-8-methyl-1-isoquinolyl)-6-[1-(2-methoxyethyl)triazol-4-yl]-N-[(3R)-3-piperidyl]pyridine-3-carboxamide] gave a pIC50 of 7.08.
Compound `Nc1ccc(-c2cc3c(N(C(=O)c4ccc(-n5nnc6cccnc65)cc4F)[C@@H]4CCCNC4)nccc3s2)cc1` [Example 412, N-[2-(4-aminophenyl)thieno[3,2-c]pyridin-4-yl]-2-fluoro-N-[(3R)-3-piperidyl]-4-(triazolo[4,5-b]pyridin-3-yl)benzamide] has a pIC50 of 7.20.
Work on `[2H]C([2H])([2H])n1cc(-c2ccc(C(=O)N(c3nccc4cccc(C)c34)[C@@H]3CCCNC3)c(F)c2)nn1` [Example 890, 2-fluoro-N-(8-methyl-1-isoquinolyl)-N-[(3R)-3-piperidyl]-4-[1-(trideuteriomethyl)triazol-4-yl]benzamide] yielded a pIC50 of 7.22.
With `Cn1cc(-c2ccc(C(=O)N(c3nccc4sc(C(N)=O)cc34)[C@@H]3CCCNC3)c(F)c2)nn1` [Example 552, 4-[[2-fluoro-4-(1-methyltriazol-4-yl)benzoyl]-[(3R)-3-piperidyl]amino] thieno [3,2-c] pyridine-2-carboxamide] the pIC50 was 6.04.
Compound `Cn1cc(-c2ccc(C(=O)N(c3nccc4sc(-c5ccccc5)cc34)[C@@H]3CCCNC3)c(F)c2)nn1` [Example 510, 2-fluoro-4-(1-methyltriazol-4-yl)-N-(2-phenylthieno[3,2-c]pyridin-4-yl)-N-[(3R)-3-piperidyl]benzamide] has a pIC50 of 6.59.
`Cc1noc(-c2ccc(C(=O)N(c3nccc4scc(C)c34)[C@@H]3CCCNC3)c(F)c2)n1` [Example 778, (R)-2-fluoro-4-(3-methyl-1,2,4-oxadiazol-5-yl)-N-(3-methylthieno[3,2-c]pyridin-4-yl)-N-(piperidin-3-yl)benzamide] gave a pIC50 of 6.55.
`Cc1cccc2ccnc(N(C(=O)c3ccc(Nc4nccc(N5CCC(C)(O)CC5)n4)cc3F)[C@@H]3CCCNC3)c12` [Example 936, (R)-2-fluoro-4-(4-(4-hydroxy-4-methylpiperidin-1-yl)pyrimidin-2-ylamino)-N-(8-methylisoquinolin-1-yl)-N-(piperidin-3-yl)benzamide] showed a pIC50 of 7.62.
Compound `CCc1cc(-n2nnc3cccnc32)ccc1C(=O)N(c1nccc2cccc(C)c12)[C@@H]1CCCNC1` [Example 307, (R)-4-(3H-[1,2,3]triazolo[4,5-b]pyridin-3-yl)-2-ethyl-N-(8-methylisoquinolin-1-yl)-N-(piperidin-3-yl)benzamide] has a pIC50 of 7.00.
Work on `Cc1cn(-c2ccc(C(=O)N(c3nccc4c(F)ccc(C)c34)[C@@H]3CCCNC3)c(F)c2)nn1` [Example 655, (R)-2-fluoro-N-(5-fluoro-8-methylisoquinolin-1-yl)-4-(4-methyl-1H-1,2,3-triazol-1-yl)-N-(piperidin-3-yl)benzamide] yielded a pIC50 of 7.08.
Work on `O=C(c1ccc(-n2nnc3cccnc32)cc1F)N(c1nccc2sc(-c3ccccc3O)cc12)[C@@H]1CCCNC1` [Example 428, 2-fluoro-N-[2-(2-hydroxyphenyl)thieno[3,2-c]pyridin-4-yl]-N-[(3R)-3-piperidyl]-4-(triazolo[4,5-b]pyridin-3-yl)benzamide] yielded a pIC50 of 6.60.
`Cc1cccc2ccnc(N(C(=O)c3ccc(N(C)c4ncccn4)cc3F)[C@@H]3CCCNC3)c12` [Example 928, (R)-2-fluoro-4-(methyl(pyrimidin-2-yl)amino)-N-(8-methylisoquinolin-1-yl)-N-(piperidin-3-yl)benzamide] gave a pIC50 of 6.60.
Work on `Cc1cccc2ccnc(N(C(=O)c3ccc(Nc4nccc(N5CCC(N(C)C)CC5)n4)cc3F)[C@@H]3CCCNC3)c12` [Example 714, (R)-4-((4-(4-(dimethylamino)piperidin-1-yl)pyrimidin-2-yl)amino)-2-fluoro-N-(8-methylisoquinolin-1-yl)-N-(piperidin-3-yl)benzamide] yielded a pIC50 of 6.64.
Compound `Cc1cc(C(=O)N(c2nccc3cccc(C)c23)[C@@H]2CCCNC2)ccc1Nc1ncccn1` [Example 747, (R)-3-methyl-N-(8-methylisoquinolin-1-yl)-N-(piperidin-3-yl)-4-(pyrimidin-2-ylamino)benzamide] has a pIC50 of 5.57.
Work on `NC(=O)c1ccc(-c2cc3c(N(C(=O)c4ccc(-n5nnc6cccnc65)cc4F)[C@@H]4CCCNC4)nccc3s2)cc1` [Example 448, N-[2-(4-carbamoylphenyl)thieno[3,2-c]pyridin-4-yl]-2-fluoro-N-[(3R)-3-piperidyl]-4-(triazolo[4,5-b]pyridin-3-yl)benzamide] yielded a pIC50 of 7.28.
`Cc1cccc2ccnc(N(C(=O)c3cccc(C#CCCCO)c3)[C@@H]3CCCNC3)c12` [Example 513, (R)-3-(5-hydroxypent-1-yn-1-yl)-N-(8-methylisoquinolin-1-yl)-N-(piperidin-3-yl) benzamide] was tested, and the pIC50 was 6.27.
Compound `Cc1cccc2ccnc(N(C(=O)c3ccc(Nc4nccc(N5CCOCC5c5cccnc5)n4)cc3F)[C@@H]3CCCNC3)c12` (stereo partly drawn) [Example 958, 2-fluoro-N-(8-methylisoquinolin-1-yl)-N—((R)-piperidin-3-yl)-4-((4-(3-(pyridin-3-yl)morpholino)pyrimidin-2-yl)amino)benzamide] has a pIC50 of 7.33.
With `Cc1cccc2ccnc(N(C(=O)c3ccc(Nc4nccc(N5CC[C@@H](O)C5)n4)cc3F)[C@@H]3CCCNC3)c12` [Example 684, 2-fluoro-4-((4-((R)-3-hydroxypyrrolidin-1-yl)pyrimidin-2-yl)amino)-N-(8-methylisoquinolin-1-yl)-N—((R)-piperidin-3-yl)benzamide] the pIC50 was 7.23.
In the case of `C=C(C)c1ccc2c(N(C(=O)c3ccc(-c4cn(C)nn4)cc3F)[C@@H]3CCCNC3)nccc2c1` [Example 692, (R)-2-fluoro-4-(1-methyl-1H-1,2,3-triazol-4-yl)-N-(piperidin-3-yl)-N-(6-(prop-1-en-2-yl)isoquinolin-1-yl)benzamide], the pIC50 was 6.46.
`Cc1nnc(-c2ccc(C(=O)N(c3nccc4c(Cl)cn(C)c34)[C@@H]3CCCNC3)c(F)c2)s1` [Example 664, (R)—N-(3-chloro-1-methyl-1H-pyrrolo[2,3-c]pyridin-7-yl)-2-fluoro-4-(5-methyl-1,3,4-thiadiazol-2-yl)-N-(piperidin-3-yl)benzamide] gave a pIC50 of 6.70.
Work on `Cc1cccc2ccnc(N(C(=O)c3ccc(Nc4nccc(N)n4)cc3F)[C@@H]3CCCNC3)c12` [Example 848, (R)-4-((4-aminopyrimidin-2-yl)amino)-2-fluoro-N-(8-methylisoquinolin-1-yl)-N-(piperidin-3-yl)benzamide] yielded a pIC50 of 6.59.
`Cn1cc(-c2ccc(C(=O)N(c3nccc4c(Cl)csc34)[C@@H]3CCCNC3)c(F)c2)nn1` [Example 678, N-(3-chlorothieno[2,3-c]705yridine-7-yl)-2-fluoro-4-(1-methyltriazol-4-yl)-N-[(3R)-3-piperidyl]benzamide] gave a pIC50 of 6.46.
`CCN1CCN(c2ccnc(Nc3ccc(C(=O)N(c4nccc5cccc(C)c45)[C@@H]4CCCNC4)c(F)c3)n2)CC1` [Example 713, (R)-4-((4-(4-ethylpiperazin-1-yl)pyrimidin-2-yl)amino)-2-fluoro-N-(8-methylisoquinolin-1-yl)-N-(piperidin-3-yl)benzamide] showed a pIC50 of 7.09.
With `Cc1nnc(-c2ccc(C(=O)N(c3nccc4cc(Cl)cc(C)c34)[C@@H]3CCCNC3)cc2C)s1` [Example 707, (R)—N-(6-chloro-8-methylisoquinolin-1-yl)-3-methyl-4-(5-methyl-1,3,4-thiadiazol-2-yl)-N-(piperidin-3-yl)benzamide] the pIC50 was 6.33.
`Cc1cccc2ccnc(N(C(=O)c3ccc(Nc4nccc(-c5ccc6[nH]ncc6c5)n4)cc3F)[C@@H]3CCCNC3)c12` [Example 932, (R)-4-((4-(1H-indazol-5-yl)pyrimidin-2-yl)amino)-2-fluoro-N-(8-methylisoquinolin-1-yl)-N-(piperidin-3-yl)benzamide] gave a pIC50 of 7.70.
In the case of `O=C(c1ccc(-c2cnn3c2CCCC3)cc1F)N(c1nccc2sc(C#CCCCO)cc12)[C@@H]1CCCNC1` [Example 839, 2-fluoro-N-[2-(5-hydroxypent-1-ynyl)thieno[3,2-c]pyridin-4-yl]-N-[(3R)-3-piperidyl]-4-(4,5,6,7-tetrahydropyrazolo[1,5-a]pyridin-3-yl)benzamide], the pIC50 was 5.82.
`Cn1cc(-c2ccc(C(=O)N(c3nccc4sc(-c5ccc6[nH]ccc6c5)cc34)[C@@H]3CCCNC3)c(F)c2)nn1` [Example 546, 2-fluoro-N-[2-(1H-indol-5-yl)thieno[3,2-c]pyridin-4-yl]-4-(1-methyltriazol-4-yl)-N-[(3R)-3-piperidyl]benzamide] gave a pIC50 of 7.04.
In the case of `Cn1cc(-c2ccc(C(=O)N(c3nccc4cc(-c5ccncc5)sc34)[C@@H]3CCCNC3)c(F)c2)nn1` [Example 505, 2-fluoro-4-(1-methyltriazol-4-yl)-N-[(3R)-3-piperidyl]-N-[2-(4-pyridyl)thieno[2,3-c]pyridin-7-yl]benzamide], the pIC50 was 6.60.
In the case of `Cc1ccc(F)c2ccnc(N(C(=O)c3ccc(-c4cnn5cccnc45)cc3F)[C@@H]3CCCNC3)c12` [Example 626, (R)-2-fluoro-N-(5-fluoro-8-methylisoquinolin-1-yl)-N-(piperidin-3-yl)-4-(pyrazolo[1,5-a]pyrimidin-3-yl)benzamide], the pIC50 was 6.96.

Same assay, conditions: MV-4-11 cells, 72 h, Cell-Titer Glo; read-out: IC50
Compound `CNC(=O)c1cccc(-c2cc3c(N(C(=O)c4ccc(-c5cn(C)nn5)cc4F)[C@@H]4CCCNC4)nccc3s2)c1` [Example 541, 2-fluoro-N-[2-[3-(methylcarbamoyl)phenyl]thieno[3,2-c]pyridin-4-yl]-4-(1-methyltriazol-4-yl)-N-[(3R)-3-piperidyl] benzamide] has a pIC50 of 6.19.
